Values joined by “and” are separate entries in the source; they are usually repeats but may differ in a detail not shown here. Identical values can stand only once.
Tests used:
Assay in all cases: CellTiter-Glo 2.0 cell viability, 7x7 combination dose response matrix, synergy scoring
Assay type in all cases: cell-based
CAL51 cell line = details: CAL51
Excerpt: (§1) A study was undertaken to determine whether the combination of a GSPT1-directed MGD and an inhibitor of the PI3K/AKT/mTOR pathway could be effective in killing cancer cells and whether certain combination could elicit a greater than additive effect on cell killing.
(§2) FIG. 1 is a flow diagram of the method used to assess cancer cell killing by a combination of a GSPT1-directed MGD and an inhibitor of the PI3K/AKT/mTOR pathway. Certain of the materials and equipment used in the studies are presented in Table 3 and the cell lines used are presented in Table 4.
(§3) All assays were run in triplicate. Each 384-well plate accommodated six 7×7 dose response matrices (FIG. 2). All compound handling was performed using an Echo 650 Series Acoustic Liquid Handler, which enables fully automated, precise, contact-free acoustic transfer in volumes as low as 2.5 nL.
(§4) The following protocol was used for cell plating: • 1. Warm media to room temperature or 37° C. • 2. Prepare complete phenol-free media by adding 10% FBS+1% Pen-Strep to RPMI 1640 Medium or DMEM. • 3. Aspirate media from T175 tissue culture flask and rinse with 10 ml PBS. • 4. Aspirate PBS and add 2 mL 0.25% trypsin. Incubate the flask at 37° C. for 5 min or until cells are detached. • 5. Add 10 mL complete media to the flask to neutralize the trypsin, then collect cells in a 50 mL conical tube. • 6. Centrifuge cells at 300 g for 5 min. Aspirate media and suspend cell pellet in fresh media. Use cell strainer to strain cells into a new 50 mL conical tube. • 7. […] Mix 100 uL cell suspension with 100 uL trypan blue (1:1) and pipette 20 μL of the mixture into each of 2 counting chambers on a slide. Insert slide. • b. Adjust focus and record the live cell count. At least 2 independent measurements should be taken. […] Cell viability should be greater than 90%. […] Dilute cell suspension to the desired concentration (20000 cells/mL) using complete phenol-free media. Prepare 10 mL cell suspension per plate+an extra 10 mL for priming the liquid handler. • 9. Dispense cells into 384-well plates using the liquid handler at 25 uL/well (500 cells/well). 3 plates should be prepared per compound plate to be treated. • 10. Cells should be dispensed into columns 1-23 only. Media only (no cells) should be dispensed into column 24. • 11. Allow plates to rest at RT for 30 minutes before transferring to the incubator. Incubate cells overnight at 37° C., 95% humidity, and 5% CO2.
(§5) Compound plates were prepared as follows using an Echo 650 Series Acoustic Liquid Handler. • 1. A compound plate containing 7-point dose responses of each compound to be treated is first prepared from stock compounds. • 2. The cell plates are treated with compounds according to the following maps, where the first compound is added across all six 7 by 7 dose response matrices, and its concentration varies by row (FIG. 2; top matrix), whereas the second compound varies for each dose response matrix, and its concentration varies by column (FIG. 2; bottom matrix). Each cell plate receives one Compound A and six different Compound Bs. • 3. To prepare a compound plate, 384-well PP plate with stock compounds (highest concentration) is prepared. Compounds are diluted 1:1000 in the cell plates, e.g. 10 mM on compound plate will be 10 uM on cell plate. A 384-well LDV plate with pre-determined volumes of DMSO is prepared. Echo is used to dilute stock compounds from PP plate into LDV plate to prepare 7-point dose responses.
(§6) Compounds were added to the cells and cell viability was measured after 72 hour incubation using CellTiter-Glo 2.0 Cell Viability Assay (Promega): • 1. For a compound addition, Echo is used to transfer 25 nL from the compound plate wells to the cell plates according to the plate maps shown in FIG. 2. Cell plates are treated in triplicate. Each well of the cell plate has 25 uL media (1:1000 dilution). Incubate cells post-treatment at 37° C., 95% humidity, and 5% CO2 for 72 hrs (step 106). • 2. […]

MCF7 cell line = test system: MCF7 cell line
Excerpt: as §1, §2, §3, §4, §5, §6

MDA-MB-157 cell line = details: first compound 0.41-100 nM
Excerpt: as §1, §2, §3, §4, §5, §6

MDA-MB-231 cell line = test system: MDA-MB-231 cell line
Excerpt: as §1, §2, §3, §4, §5, §6

NCI-H2023 cell line = test system: NCI-H2023 cell line
Excerpt: as §1, §2, §3, §4, §5, §6

[1] = combined with Alpelisib 41-10000 nM, first compound 0.41-33.33 nM
[2] = combined with Alpelisib 41-10000 nM, first compound 0.41-100 nM
[3] = combined with Everolimus 41-10000 nM, first compound 0.41-100 nM
[4] = combined with GNE-477 41-10000 nM, first compound 0.41-100 nM
[5] = combined with HS173 41-10000 nM, first compound 0.41-100 nM
[6] = combined with KU-0063794 41-10000 nM, first compound 0.41-100 nM
[7] = combined with M2698 41-10000 nM, first compound 0.41-100 nM
[8] = combined with Serabelisib 41-10000 nM, first compound 0.41-100 nM
[9] = MCF7, combined with Alpelisib 41-10000 nM, first compound 0.41-33.33 nM
[10] = MCF7, combined with Capivasertib 41-10000 nM, first compound 0.41-100 nM
[11] = MCF7, combined with Everolimus 41-10000 nM, first compound 0.41-100 nM
[12] = MCF7, combined with GNE-477 41-10000 nM, first compound 0.41-100 nM
[13] = MCF7, combined with HS173 41-10000 nM, first compound 0.41-100 nM
[14] = MCF7, combined with KU-0063794 41-10000 nM, first compound 0.41-100 nM
[15] = MCF7, combined with M2698 41-10000 nM, first compound 0.41-100 nM
[16] = MCF7, combined with Serabelisib 41-10000 nM, first compound 0.41-100 nM
[17] = combined with Alpelisib 41-10000 nM
[18] = combined with Capivasertib 41-10000 nM
[19] = combined with Everolimus 41-10000 nM
[20] = combined with GNE-477 41-10000 nM
[21] = combined with KU-0063794 41-10000 nM
[22] = MDA-MB-231, combined with Alpelisib 41-10000 nM, first compound 0.41-100 nM
[23] = MDA-MB-231, combined with Capivasertib 41-10000 nM, first compound 0.41-100 nM
[24] = MDA-MB-231, combined with Everolimus 41-10000 nM, first compound 0.41-100 nM
[25] = MDA-MB-231, combined with GNE-477 41-10000 nM, first compound 0.41-100 nM
[26] = MDA-MB-231, combined with KU-0063794 41-10000 nM, first compound 0.41-100 nM
[27] = NCI-H2023, combined with Alpelisib 21-10000 nM, first compound 0.21-100 nM
[28] = NCI-H2023, combined with Capivasertib 21-10000 nM, first compound 0.21-100 nM
[29] = NCI-H2023, combined with Everolimus 2.1-1000 nM, first compound 0.21-100 nM
[30] = NCI-H2023, combined with GNE-477 21-10000 nM, first compound 0.21-100 nM
[31] = NCI-H2023, combined with KU-0063794 21-10000 nM, first compound 0.21-100 nM
[32] = NCI-H2023, combined with M2698 21-10000 nM, first compound 0.21-100 nM

Structure (SMILES): Cc1ccc(NC(=O)OCc2ccc3c(c2)C(=O)N(C2CCC(=O)NC2=O)C3)cc1Cl (stereo not shown) [Compound 1-6, [2-(2,6-dioxopiperidin-3-yl)-3-oxo-2,3-dihydro-1H-isoindol-5-yl]methyl N-(3-chloro-4-methylphenyl)carbamate]
- Mean Bliss synergy score (CAL51 cell line; [1]): 4.15
- Mean Loewe synergy score (CAL51 cell line; [1]): 7.89
- Mean Bliss synergy score (CAL51 cell line; [2]): 13.06 and 19.57
- Mean Loewe synergy score (CAL51 cell line; [2]): 11.36 and 7.04
- Mean Bliss synergy score (CAL51 cell line; combined with Capivasertib 41-10000 nM, first compound 0.41-100 nM): 24.03 and 20.68
- Mean Bliss synergy score (CAL51 cell line; [3]): 20.31
- Mean Loewe synergy score (CAL51 cell line; [3]): 22.83
- Mean Bliss synergy score (CAL51 cell line; [4]): 5.80
- Mean Loewe synergy score (CAL51 cell line; [4]): 6.34
- Mean Bliss synergy score (CAL51 cell line; [5]): 4.98
- Mean Loewe synergy score (CAL51 cell line; [5]): 1.89
- Mean Bliss synergy score (CAL51 cell line; [6]): 12.93
- Mean Loewe synergy score (CAL51 cell line; [6]): 8.26
- Mean Bliss synergy score (CAL51 cell line; [7]): 11.87 and 11.78
- Mean Loewe synergy score (CAL51 cell line; [7]): 12.09 and 12.43
- Mean Bliss synergy score (CAL51 cell line; [8]): 4.74
- Mean Loewe synergy score (CAL51 cell line; [8]): 0.94
- Mean Bliss synergy score (MCF7 cell line; [9]): 3.23
- Mean Loewe synergy score (MCF7 cell line; [9]): 9.38
- Mean Loewe synergy score (MCF7 cell line; MCF7, combined with Alpelisib 41-10000 nM, first compound 0.41-100 nM): 10.18 and 8.52
- Mean Bliss synergy score (MCF7 cell line; [10]): 14.01 and 11.86
- Mean Loewe synergy score (MCF7 cell line; [10]): 12.75 and 11.61
- Mean Bliss synergy score (MCF7 cell line; [11]): 10.05
- Mean Loewe synergy score (MCF7 cell line; [11]): 17.80
- Mean Bliss synergy score (MCF7 cell line; [12]): 0.14
- Mean Loewe synergy score (MCF7 cell line; [12]): 6.12
- Mean Bliss synergy score (MCF7 cell line; [13]): 0.74
- Mean Loewe synergy score (MCF7 cell line; [13]): 3.72
- Mean Bliss synergy score (MCF7 cell line; [14]): 5.02
- Mean Loewe synergy score (MCF7 cell line; [14]): 9.44
- Mean Bliss synergy score (MCF7 cell line; [15]): 2.92 and 3.60
- Mean Loewe synergy score (MCF7 cell line; [15]): 10.25 and 9.07
- Mean Bliss synergy score (MCF7 cell line; [16]): 4.69
- Mean Loewe synergy score (MCF7 cell line; [16]): 4.49
- Mean Loewe synergy score (MCF7 cell line; combined with Capivasertib, MCF7 cell line (printed in Example 5, lung cancer cell lines), mean across dose response matrix, 72 hrs): 16.02
- Mean Loewe synergy score (MCF7 cell line; combined with KU-0063794 (41 nM to 10 uM), MCF7 cell line, mean across dose response matrix, 72 hrs): 9.44
- Mean Bliss synergy score (MDA-MB-157 cell line; [17]): 1.84
- Mean Loewe synergy score (MDA-MB-157 cell line; [17]): 3.29
- Mean Bliss synergy score (MDA-MB-157 cell line; [18]): 6.73
- Mean Loewe synergy score (MDA-MB-157 cell line; [18]): 5.04
- Mean Bliss synergy score (MDA-MB-157 cell line; [19]): 4.15
- Mean Loewe synergy score (MDA-MB-157 cell line; [19]): 9.01
- Mean Bliss synergy score (MDA-MB-157 cell line; [20]): 0.86
- Mean Loewe synergy score (MDA-MB-157 cell line; [20]): 4.66
- Mean Bliss synergy score (MDA-MB-157 cell line; [21]): 1.22
- Mean Loewe synergy score (MDA-MB-157 cell line; [21]): 5.42
- Mean Loewe synergy score (MDA-MB-157 cell line; combined with M2698 41-10000 nM): 5.62 and 4.44
- Mean Bliss synergy score (MDA-MB-231 cell line; [22]): 1.80
- Mean Loewe synergy score (MDA-MB-231 cell line; [22]): 5.93
- Mean Bliss synergy score (MDA-MB-231 cell line; [23]): 5.75
- Mean Loewe synergy score (MDA-MB-231 cell line; [23]): 7.02
- Mean Bliss synergy score (MDA-MB-231 cell line; [24]): 8.98
- Mean Loewe synergy score (MDA-MB-231 cell line; [24]): 11.33
- Mean Bliss synergy score (MDA-MB-231 cell line; [25]): 2.23
- Mean Loewe synergy score (MDA-MB-231 cell line; [25]): 5.29
- Mean Bliss synergy score (MDA-MB-231 cell line; [26]): 3.19
- Mean Loewe synergy score (MDA-MB-231 cell line; [26]): 6.78
- Mean Loewe synergy score (MDA-MB-231 cell line; MDA-MB-231, combined with M2698 41-10000 nM, first compound 0.41-100 nM): 4.77 and 5.02
- Mean Bliss synergy score (MDA-MB-231 cell line; combined with Everolimus (41 nM to 10 uM), MDA-MB-231 cell line, mean across dose response matrix, 72 hrs): 8.98
- Mean Bliss synergy score (NCI-H2023 cell line; [27]): 19.68
- Mean Loewe synergy score (NCI-H2023 cell line; [27]): 8.92
- Mean Bliss synergy score (NCI-H2023 cell line; [28]): 22.78
- Mean Loewe synergy score (NCI-H2023 cell line; [28]): 11.70
- Mean Bliss synergy score (NCI-H2023 cell line; [29]): 13.21
- Mean Loewe synergy score (NCI-H2023 cell line; [29]): 17.02
- Mean Bliss synergy score (NCI-H2023 cell line; [30]): 14.13
- Mean Loewe synergy score (NCI-H2023 cell line; [30]): 5.10
- Mean Bliss synergy score (NCI-H2023 cell line; [31]): 18.40
- Mean Loewe synergy score (NCI-H2023 cell line; [31]): 11.37
- Mean Bliss synergy score (NCI-H2023 cell line; [32]): 12.91
- Mean Loewe synergy score (NCI-H2023 cell line; [32]): 11.66
- Mean Bliss synergy score (NCI-H2023 cell line; combined with KU-0063794 (21 nM to 10 uM), NCI-H2023 cell line, mean across dose response matrix, 72 hrs): 18.40
- Mean Loewe synergy score (NCI-H2023 cell line; combined with M2698 (21 nM to 10 uM), NCI-H2023 cell line, mean across dose response matrix, 72 hrs): 11.66

From US20260166045A1, “COMBINATION THERAPY COMPRISING GSPT1-DIRECTED MOLECULAR GLUE DEGRADERS AND PI3K/AKT/mTOR PATHWAY INHIBITORS” (Monte Rosa Therapeutics, Inc., priority 2022, published 2026)
